Data from patent US20230167064A1, “TREATMENTS OF INFLAMMATORY BOWEL DISEASE” (Aqilion AB, priority 2020, published 2023).
Entries after “also recorded” stand apart in the source; their conditions may differ.

Experiments:
[1] = tested on: DSS model of Ulcerative Colitis using C57Bl/6 mice; assay: DSS model of Ulcerative Colitis in mice; assay type: in vivo; settings: 1 mg/kg daily oral, vs vehicle (and anti-TNFα antibody); for colitis clinical score: suspension in CMC-Na 2%, Day 9; for colon length: Day 10, experiment termination
Method: Ulcerative Colitis was modelled in C57Bl/6 mice by administering Dextran Sulphate Sodium (DSS) in drinking water (1.5% w/v) for 5 days. Mice were monitored daily for weight loss and clinical symptoms of disease for 10 days starting at the beginning of DSS administration.
The length and weight of the colon were also assessed.
Compared to naïve animals, animals given DSS water developed clinical signs of disease including weight loss and diarrhoea as well as gross pathological signs of disease on experiment termination. […] Shortened length and increased weight:length ratio indicates edema associated with ulcerative colitis.

[2] = tested on: CD4+ adoptive transfer induced inflammatory bowel disease in mice; assay: CD4+ adoptive transfer induced inflammatory bowel disease in mice; assay type: in vivo, Fox Chase C.B-17 SCID mice; settings: 1 mg/kg daily, day 21 to 49; for inhibition of inflammation/edema associated with inflammatory bowel disease (anti-inflammatory effect in colon): Potassium Salt
Method: The efficacy of Example compound 2 in inhibiting inflammation/edema associated with inflammatory bowel disease was evaluated in a CD4+ adoptive transfer induced inflammatory bowel disease in mice.
Species/Strain or Breed: Fox Chase C.B-17 SCID & Balb/C
On study day −1, SCID mice were weighed and evenly distributed into treatment groups based on body weight.
On study day 0, Balb/C mice were terminated, and spleens obtained for CD4^+CD45RB^high cell isolation (Using SCID IBD Cell Separation Protocol). After cells were sorted and obtained, each animal in the treatment groups received an IP injection of CD4^+CD45RB^high cells at a minimum 4×10^5 cells (200 μl/mouse injections). A naïve group of mice was followed through the experiment without receiving the injection of cells. The naïve group comprised 5 animals.
On study day 21, treatment with Example compound 2 (1 mg/kg, daily day 21 to 49) was initiated. The compound was formulated as a 0.1 mg/mL suspension with sodium carboxymethyl cellulose (1%, w/v). Mice received either Example compound 2 or vehicle. Each of those groups comprised 10 animals.
On study day 49, animals were anesthetized with Isoflurane and bled to exsanguination followed by cervical dislocation. The entire colon was removed, measured, and weighed. The colon was analysed for its level of interferon-γ and IL-22. The inflammation in the colons was also scored by visual and histopathological assessments.

[3] = In vivo pharmacokinetic study in rats; design: species or system Sprague Dawley rats; settings: 1 mg/kg oral, rat plasma
Method: An in vivo pharmacokinetic study in rats was performed to determine if Example compound 2 can be absorbed and detected systemically after oral dosing. 4 male Sprague Dawley rats, approximately 225 g-250 g at dosing were dosed with 1 mg/kg of Example compound 2 formulated as a 0.1 mg/mL suspension with sodium carboxymethyl cellulose (1%, w/v). Blood samples were taken at 15 min, 30 min, 1 h, 2 h, 4 h, 6 h, 8 h and 24 h post dose At each blood sampling approximately 250 μL blood was sampled in K3EDTA vials and approximately 100 μL plasma was also prepared. The plasma samples were prepared by mixing 50 μL plasma with 250 μL of internal standard solution (20 ng/mL of phenacetin in ACN with 1% formic acid), mixed and centrifuged (20 min, 4000 rpm). Plasma samples were transferred to Waters Ostro 96-well plate and drawn through the plate by applying 6-8 psi positive pressure for 10 min. 100 μL of supernatant was further diluted with 50 μL UP water and sample was submitted to analysis. The standard and QC samples were prepared into blank rat colon homogenate and blank rat plasma. Standards were spiked into concentrations 0.1-10000 ng/mL of the analytes, QC samples into 3, 30, 300 and 3000 ng/mL, and were otherwise treated as samples.

[4] = tested on: aryl hydrocarbon receptor (AhR); assay: Activation of AhR in colon of mice after oral dosing (qPCR of CYP1A1); assay type: in vivo, C57Bl/6 mice; settings: for Colon CYP1A1 (fold change over untreated) Mean / Liver CYP1A1 (fold change over untreated) Mean: day 14; for Colon CYP1A1 (fold change over untreated) Mean: qPCR normalized to GAPDH & ACTB
Method: The potential of Example compound 2 to activate the aryl hydrocarbon receptor (AhR) in the colon following oral administration was evaluated in a wild-type (WT) mice.
Species/Strain or Breed: C57Bl/6
On study day 0, animals were weighed and evenly distributed into treatment groups based on body weight. On study day 14, animals were asphyxiated via CO2 inhalation followed by cervical dislocation. The entire colon was removed, collected and prepared for qPCR analysis of CYP1A1 (Normalized to GAPDH & ACTB).
The Example compound 2 was formulated as a 0.1 mg/ml, 0.01 mg/ml or 0.001 mg/ml suspension with sodium carboxymethyl cellulose (1%, w/v).

Crohn's Disease = settings: reported in D'Haens et al. 2015 and WO 2011/014255; cited from earlier work

With `Cn1c(=O)c(C(=O)Nc2ccccc2)c(O)c2c(Cl)cccc21` [Example compound 1, 5-chloro-4-hydroxy-1-methyl-2-oxo-N-phenyl-quinoline-3-carboxamide] the colitis clinical score [1] was “significant reduction in colitis clinical score; also recorded: lower colitis score”, the colitis clinical score ([1]; listed as DELAQ) was “protective effect against the development of the clinical symptoms of Ulcerative Colitis” and the colon length [1] was “significant increase in colon length; also recorded: greater colon length”. For the same compound, the colon length ([1]; listed as DELAQ) was “effective at reducing colon shortening” and the “body weight change (% change from day 1 of experiment), weight loss” value [1] was “reduced weight loss”.

With `Cn1c(=O)c(C(=O)Nc2ccccc2)c(O)c2c(Cl)cccc21.[K]` [Example compound 2, 5-chloro-4-hydroxy-1-methyl-2-oxo-N-phenyl-quinoline-3-carboxamide Potassium Salt] the “inhibition of inflammation/edema associated with inflammatory bowel disease (anti-inflammatory effect in colon)” value [2] was “local anti-inflammatory effect in the colon”, the “colon level of inflammatory markers (interferon-γ and IL-22)” value ([2]; colon at day 49, vs vehicle) was “lower levels of inflammatory markers” and the “inflammation in the colons scored by visual and histopathological assessments” value ([2]; day 49, vs vehicle) was “fewer signs of inflammation”. The “inhibition of inflammation/edema associated with inflammatory bowel disease (anti-inflammatory effect in colon)” value ([2]; listed as potassium salt of DELAQ) was “effective in inhibiting inflammation/edema”, the “body weight (weight loss)” value ([2]; vs vehicle) was “less weight loss” and the clearance from plasma [3] was “rapidly cleared”. The “level in the plasma after oral dosing” value ([3]; 15 min to 24 h post dose) was “detected in the plasma”, the “Colon CYP1A1 (fold change over untreated) Mean” value ([4]; 0.01 mg/kg PO QD D0-13) was 1.03 fold change over untreated and the “Liver CYP1A1 (fold change over untreated) Mean” value ([4]; 0.01 mg/kg PO QD D0-13) was 1.08 fold change over untreated. For the same compound, the “Colon CYP1A1 (fold change over untreated) Mean” value ([4]; 0.1 mg/kg PO QD D0-13) was 7.42 fold change over untreated, the “Liver CYP1A1 (fold change over untreated) Mean” value ([4]; 0.1 mg/kg PO QD D0-13) was 2.81 fold change over untreated and the “Colon CYP1A1 (fold change over untreated) Mean” value ([4]; 1.0 mg/kg PO QD D0-13) was 8.34 fold change over untreated. The “Liver CYP1A1 (fold change over untreated) Mean” value ([4]; 1.0 mg/kg PO QD D0-13) was 3.44 fold change over untreated, the “CYP1A1 mRNA expression compared to untreated animals (AhR activation)” value ([4]; 1.0 and 0.1 mg/kg oral, WT mice) was “significant increase in CYP1A1 mRNA expression” and the “AhR activating effect, colon versus liver CYP1A1 increase” value ([4]; oral, increase in liver CYP1A1 lower than in colon) was “local AhR activating effect”.

In the case of `CCN(C(=O)c1c(O)c2c(Cl)cccc2n(C)c1=O)c1ccccc1` [laquinimod], the “benefit in treatment of Crohn's Disease” value (Crohn's Disease) is listed as “beneficial for the treatment of Crohn's Disease”.
